According to paper PMC7066280 (Investigational New Drugs, 2019):
Like-named read-outs stand apart in the source and are kept apart here.

Experiments:
[1] = Ivosidenib plasma PK after a single oral dose (day −3, dose escalation), LC-MS/MS, non-compartmental; format: in vivo; settings: human; for AUC(0-t): read-out: AUC0-72h
Method: In the dose escalation portion, patients with 1) glioma and 2) non-glioma solid tumors were enrolled into sequential cohorts using a standard 3 + 3 design. […] At least 3 patients in each cohort also received a single dose 3 days prior to the start of multiple dosing (i.e., day −3).
These samples were optional for any further patients enrolled in these cohorts. Further blood samples were collected from all patients up to 10 h postdose on cycle 1, day 15 and cycle 2, day 1. A subset of samples was also used for evaluation of plasma 4β-hydroxycholesterol (4β-OHC) and 4β-OHC:cholesterol ratios. Blood samples for assessment of 2-HG only were also collected at screening.
(§1) Plasma ivosidenib was measured using two validated liquid chromatography-tandem mass spectrometry (LC-MS/MS) methods. The lower limit of quantification (LLOQ) was 1.00 ng/mL (low-range assay) or 50.0 ng/mL (high-range assay). […] Plasma 2-HG concentrations were measured using a qualified LC-MS/MS method with an LLOQ of 30.0 ng/mL. Concentrations of 2-HG in tumor biopsy samples were quantified using qualified LC-MS/MS methods with an LLOQ of 7.5 μg/g for brain tumor homogenate, 100 ng/g for liver tumor homogenate (low-range assay), and 30 μg/g for liver tumor homogenate (high-range assay). Plasma 4β-OHC and cholesterol were measured using a validated LC-MS/MS method. The LLOQ was 5 ng/mL for 4β-OHC and 25 μg/mL for cholesterol in human plasma.
(§2) PK parameters included area under the plasma concentration-time curve (AUC), maximum plasma concentration (Cmax), time to maximum plasma concentration (Tmax), terminal elimination half-life (t1/2), and apparent oral clearance at steady state (CLss/F). Accumulation ratio (Racc), based on Cmax and AUC, was also assessed during the dose escalation portion. PD (2-HG) parameters included baseline-effect value, area under the effect concentration-time curve (AUEC0-10h for the dose escalation portion, or AUEC0-8h for the dose escalation and expansion portions), percent change from baseline in AUEC (%BAUEC0-10h for the escalation portion, or %BAUEC0-8h for the dose escalation and expansion portions), average plasma concentration (Cavg), and percent inhibition for Cavg (%BCavg). For the dose escalation portion, the time-matched ratios of 4β-OHC to cholesterol were calculated.

[2] = Ivosidenib plasma PK after single and multiple 500 mg QD doses (dose expansion); format: in vivo, human; settings: for Cmax / AUC(0-t) / Tmax: human, plasma, oral, 500 mg
Method: Additional predose samples were taken on cycle 1, day 8; cycle 1, day 15; cycle 3, day 1; and end of treatment.
as §1, §2

[3] = Dose proportionality assessment of AUC and Cmax (power model); format: in vivo, human
Method: Dose proportionality after multiple dosing was tested using data from the QD dose regimens without the 100 mg BID dose group. To assess dose proportionality, the confidence interval (CI) for the slope was estimated, with each natural logarithm (ln)-transformed PK parameter as the dependent variable and the ln-transformed dose as the fixed effect. Analysis was performed using PK parameter estimates at day −3, cycle 1, day 15, and cycle 2, day 1. Dose proportionality was concluded if the 95% CI around the slope included 1 and if the slope was between 0.8 and 1.2 (inclusive).

[4] = po, 100 mg, glioma, single oral 100 mg, day −3, geometric mean (geometric CV%)
[5] = po, 100 mg, non-glioma solid tumors, single oral 100 mg, day −3, geometric mean (geometric CV%)
[6] = po, 300 mg, glioma, single oral 300 mg, day −3, geometric mean (geometric CV%)
[7] = po, 300 mg, non-glioma solid tumors, single oral 300 mg, day −3, geometric mean (geometric CV%)
[8] = po, 400 mg, non-glioma solid tumors, single oral 400 mg, day −3, geometric mean (geometric CV%)
[9] = po, 500 mg, glioma, single oral 500 mg, day −3, geometric mean (geometric CV%)
[10] = po, 500 mg, non-glioma solid tumors, single oral 500 mg, day −3, geometric mean (geometric CV%)
[11] = po, 600 mg, glioma, single oral 600 mg, day −3, geometric mean (geometric CV%)
[12] = po, 800 mg, non-glioma solid tumors, single oral 800 mg, day −3, geometric mean (geometric CV%)
[13] = po, 900 mg, glioma, single oral 900 mg, day −3, geometric mean (geometric CV%)
[14] = po, 1200 mg, non-glioma solid tumors, single oral 1200 mg, day −3, geometric mean (geometric CV%)

N#Cc1ccnc(N2C(=O)CC[C@H]2C(=O)N(c2cncc(F)c2)[C@H](C(=O)NC2CC(F)(F)C2)c2ccccc2Cl)c1 [ivosidenib]
half-life ([1]; oral, 500 mg, single dose of 500 mg, patients with cholangiocarcinoma/chondrosarcoma, read-out: mean t1/2 (converted)): 64 h
half-life ([1]; oral, 500 mg, single dose of 500 mg, patients with glioma, read-out: mean t1/2 (converted)): 56 h
half-life ([1]; oral, after single dose, range of means across doses and tumor types, read-out: terminal half-life (mean)): 40 to 102 h
Tmax ([1]; oral, single dose day −3, range across all tumor types, read-out: median Tmax): 2 to 6 h
half-life ([1]; oral, single dose, patients with glioma, range across doses, read-out: mean t1/2 (converted)): 40 to 56 h
half-life ([1]; oral, single dose, patients with non-glioma solid tumors, range across doses, read-out: mean t1/2 (converted)): 62 to 102 h
Cmax [1, 4]: 1270 ng/mL
AUC(0-t) [1, 4]: 32800 ng·h/mL
half-life ([1]; po, 100 mg, glioma, single oral 100 mg, day −3, geometric mean (geometric CV%), read-out: t1/2 (converted)): 55.5 h
Tmax ([1]; po, 100 mg, glioma, single oral 100 mg, day −3, median (minimum; maximum), read-out: Tmax): 2.03 h
Cmax [1, 5]: 1400 ng/mL
AUC(0-t) [1, 5]: 34800 ng·h/mL
half-life ([1]; po, 100 mg, non-glioma solid tumors, single oral 100 mg, day −3, geometric mean (geometric CV%), read-out: t1/2 (converted)): 102 h
Tmax ([1]; po, 100 mg, non-glioma solid tumors, single oral 100 mg, day −3, median (minimum; maximum), read-out: Tmax): 3 h
Cmax [1, 6]: 2300 ng/mL
AUC(0-t) [1, 6]: 62500 ng·h/mL
half-life ([1]; po, 300 mg, glioma, single oral 300 mg, day −3, geometric mean (geometric CV%), read-out: t1/2 (converted)): 53.6 h
Tmax ([1]; po, 300 mg, glioma, single oral 300 mg, day −3, median (minimum; maximum), read-out: Tmax): 4 h
Cmax [1, 7]: 2350 ng/mL
AUC(0-t) [1, 7]: 71600 ng·h/mL
half-life ([1]; po, 300 mg, non-glioma solid tumors, single oral 300 mg, day −3, geometric mean (geometric CV%), read-out: t1/2 (converted)): 77.9 h
Tmax ([1]; po, 300 mg, non-glioma solid tumors, single oral 300 mg, day −3, median (minimum; maximum), read-out: Tmax): 4.17 h
Cmax [1, 8]: 4230 ng/mL
AUC(0-t) [1, 8]: 141000 ng·h/mL
half-life ([1]; po, 400 mg, non-glioma solid tumors, single oral 400 mg, day −3, geometric mean (geometric CV%), read-out: t1/2 (converted)): 77.3 h
Tmax ([1]; po, 400 mg, non-glioma solid tumors, single oral 400 mg, day −3, median (minimum; maximum), read-out: Tmax): 3 h
Cmax [1, 9]: 2370 ng/mL
AUC(0-t) [1, 9]: 81900 ng·h/mL
half-life ([1]; po, 500 mg, glioma, single oral 500 mg, day −3, geometric mean (geometric CV%), read-out: t1/2 (converted)): 56.4 h
Tmax ([1]; po, 500 mg, glioma, single oral 500 mg, day −3, median (minimum; maximum), read-out: Tmax): 3.54 h
Cmax [1, 10]: 3660 ng/mL
AUC(0-t) [1, 10]: 112000 ng·h/mL
half-life ([1]; po, 500 mg, non-glioma solid tumors, single oral 500 mg, day −3, geometric mean (geometric CV%), read-out: t1/2 (converted)): 64.3 h
Tmax ([1]; po, 500 mg, non-glioma solid tumors, single oral 500 mg, day −3, median (minimum; maximum), read-out: Tmax): 2.92 h
Cmax [1, 11]: 3380 ng/mL
AUC(0-t) [1, 11]: 77700 ng·h/mL
half-life ([1]; po, 600 mg, glioma, single oral 600 mg, day −3, geometric mean (geometric CV%), read-out: t1/2 (converted)): 39.5 h
Tmax ([1]; po, 600 mg, glioma, single oral 600 mg, day −3, median (minimum; maximum), read-out: Tmax): 3 h
Cmax [1, 12]: 6190 ng/mL
AUC(0-t) [1, 12]: 179000 ng·h/mL
half-life ([1]; po, 800 mg, non-glioma solid tumors, single oral 800 mg, day −3, geometric mean (geometric CV%), read-out: t1/2 (converted)): 62.8 h
Tmax ([1]; po, 800 mg, non-glioma solid tumors, single oral 800 mg, day −3, median (minimum; maximum), read-out: Tmax): 3 h
Cmax [1, 13]: 3440 ng/mL
AUC(0-t) [1, 13]: 98600 ng·h/mL
half-life ([1]; po, 900 mg, glioma, single oral 900 mg, day −3, geometric mean (geometric CV%), read-out: t1/2 (converted)): 54.3 h
Tmax ([1]; po, 900 mg, glioma, single oral 900 mg, day −3, median (minimum; maximum), read-out: Tmax): 2.55 h
Cmax [1, 14]: 5990 ng/mL
AUC(0-t) [1, 14]: 212000 ng·h/mL
half-life ([1]; po, 1200 mg, non-glioma solid tumors, single oral 1200 mg, day −3, geometric mean (geometric CV%), read-out: t1/2 (converted)): 61.6 h
Tmax ([1]; po, 1200 mg, non-glioma solid tumors, single oral 1200 mg, day −3, median (minimum; maximum), read-out: Tmax): 6 h
Cmax at steady state lower in glioma than in cholangiocarcinoma/chondrosarcoma [2]: ~29%
Cmax ([2]; expansion cholangiocarcinoma, cycle 1 day 1, geometric mean (geometric CV%)): 3660 ng/mL
AUC(0-t) ([2]; expansion cholangiocarcinoma, cycle 1 day 1, geometric mean (geometric CV%), read-out: AUC0-8hr): 19700 ng·h/mL
Tmax ([2]; expansion cholangiocarcinoma, cycle 1 day 1, median (minimum; maximum)): 3.08 h
Cmax ([2]; expansion cholangiocarcinoma, cycle 2 day 1, geometric mean (geometric CV%)): 4580 ng/mL
AUC(0-t) ([2]; expansion cholangiocarcinoma, cycle 2 day 1, geometric mean (geometric CV%), read-out: AUC0-8hr): 29000 ng·h/mL
AUC(0-t) ([2]; expansion cholangiocarcinoma, cycle 2 day 1, geometric mean (geometric CV%), read-out: AUC0-24hr): 75600 ng·h/mL
Tmax ([2]; expansion cholangiocarcinoma, cycle 2 day 1, median (minimum; maximum)): 2.03 h
Cmax ([2]; expansion chondrosarcoma, cycle 1 day 1, geometric mean (geometric CV%)): 4260 ng/mL
AUC(0-t) ([2]; expansion chondrosarcoma, cycle 1 day 1, geometric mean (geometric CV%), read-out: AUC0-8hr): 22900 ng·h/mL
Tmax ([2]; expansion chondrosarcoma, cycle 1 day 1, median (minimum; maximum)): 2.98 h
Cmax ([2]; expansion chondrosarcoma, cycle 2 day 1, geometric mean (geometric CV%)): 5300 ng/mL
AUC(0-t) ([2]; expansion chondrosarcoma, cycle 2 day 1, geometric mean (geometric CV%), read-out: AUC0-8hr): 36200 ng·h/mL
AUC(0-t) ([2]; expansion chondrosarcoma, cycle 2 day 1, geometric mean (geometric CV%), read-out: AUC0-24hr): 88700 ng·h/mL
Tmax ([2]; expansion chondrosarcoma, cycle 2 day 1, median (minimum; maximum)): 2.08 h
Cmax ([2]; expansion enhancing glioma, cycle 1 day 1, geometric mean (geometric CV%)): 3140 ng/mL
AUC(0-t) ([2]; expansion enhancing glioma, cycle 1 day 1, geometric mean (geometric CV%), read-out: AUC0-8hr): 16000 ng·h/mL
Tmax ([2]; expansion enhancing glioma, cycle 1 day 1, median (minimum; maximum)): 3.01 h
Cmax ([2]; expansion enhancing glioma, cycle 2 day 1, geometric mean (geometric CV%)): 3800 ng/mL
AUC(0-t) ([2]; expansion enhancing glioma, cycle 2 day 1, geometric mean (geometric CV%), read-out: AUC0-8hr): 24400 ng·h/mL
AUC(0-t) ([2]; expansion enhancing glioma, cycle 2 day 1, geometric mean (geometric CV%), read-out: AUC0-24hr): 62600 ng·h/mL
Tmax ([2]; expansion enhancing glioma, cycle 2 day 1, median (minimum; maximum)): 2.03 h
Cmax ([2]; expansion non-enhancing glioma, cycle 1 day 1, geometric mean (geometric CV%)): 2790 ng/mL
AUC(0-t) ([2]; expansion non-enhancing glioma, cycle 1 day 1, geometric mean (geometric CV%), read-out: AUC0-8hr): 14900 ng·h/mL
Tmax ([2]; expansion non-enhancing glioma, cycle 1 day 1, median (minimum; maximum)): 2.58 h
Cmax ([2]; expansion non-enhancing glioma, cycle 2 day 1, geometric mean (geometric CV%)): 3540 ng/mL
AUC(0-t) ([2]; expansion non-enhancing glioma, cycle 2 day 1, geometric mean (geometric CV%), read-out: AUC0-8hr): 22200 ng·h/mL
AUC(0-t) ([2]; expansion non-enhancing glioma, cycle 2 day 1, geometric mean (geometric CV%), read-out: AUC0-24hr): 55700 ng·h/mL
Tmax ([2]; expansion non-enhancing glioma, cycle 2 day 1, median (minimum; maximum)): 3.05 h
Cmax ([2]; expansion other solid tumors, cycle 1 day 1, geometric mean (geometric CV%)): 2290 ng/mL
AUC(0-t) ([2]; expansion other solid tumors, cycle 1 day 1, geometric mean (geometric CV%), read-out: AUC0-8hr): 13800 ng·h/mL
Tmax ([2]; expansion other solid tumors, cycle 1 day 1, median (minimum; maximum)): 2.55 h
Cmax ([2]; expansion other solid tumors, cycle 2 day 1, geometric mean (geometric CV%)): 4130 ng/mL
AUC(0-t) ([2]; expansion other solid tumors, cycle 2 day 1, geometric mean (geometric CV%), read-out: AUC0-8hr): 25100 ng·h/mL
AUC(0-t) ([2]; expansion other solid tumors, cycle 2 day 1, geometric mean (geometric CV%), read-out: AUC0-24hr): 62200 ng·h/mL
Tmax ([2]; expansion other solid tumors, cycle 2 day 1, median (minimum; maximum)): 1.98 h
Cmax ([2]; expansion overall, cycle 1 day 1, geometric mean (geometric CV%)): 3310 ng/mL
AUC(0-t) ([2]; expansion overall, cycle 1 day 1, geometric mean (geometric CV%), read-out: AUC0-8hr): 17600 ng·h/mL
Tmax ([2]; expansion overall, cycle 1 day 1, median (minimum; maximum)): 3 h
Cmax ([2]; expansion overall, cycle 2 day 1, geometric mean (geometric CV%)): 4210 ng/mL
AUC(0-t) ([2]; expansion overall, cycle 2 day 1, geometric mean (geometric CV%), read-out: AUC0-8hr): 26600 ng·h/mL
AUC(0-t) ([2]; expansion overall, cycle 2 day 1, geometric mean (geometric CV%), read-out: AUC0-24hr): 68500 ng·h/mL
Tmax ([2]; expansion overall, cycle 2 day 1, median (minimum; maximum)): 2.14 h
increase in ivosidenib exposure for a doubling of dose ([3]; patients with glioma): ~40%
increase in ivosidenib exposure for a doubling of dose ([3]; patients with non-glioma solid tumors): ~70%
